Measured values taken from patent US20250281480A1, “PHARMACEUTICAL DRY POWDER INHALATION FORMULATION” (Bayer Aktiengesellschaft, priority 2021, published 2025).

Experiments:
[1] = tested on: plasma proteins; assay: Protein binding via Transil assay, dog plasma; format: in vitro ADME
Text: The distribution of a test substance between Transil® (phosphatidylcholine lipid bilayers immobilized on silica beads) and plasma is a characteristic feature of any pharmaceutical compound and is dependent on its extent of binding to plasma proteins. By comparing the distribution between Transil® and buffer with the distribution between Transil® and plasma of any species of interest, the unbound fraction in the plasma of the respective animal species can be calculated in vitro. The respective plasma and buffer concentrations were determined via a radioactivity analysis. A detailed description of the method and its validation was published by Schuhmacher et al. (2).

[2] = tested on: acetylcholine [ACh] rat model; assay: Acetylcholine [ACh] rat model, bronchodilation; conditions: in vivo
[3] = Micronization of monohydrate II and monohydrate I (spiral jet mill): solid form after micronization; format: physicochemical; conditions: example 8e: 100 mm spiral jet mill
Text: Generally no amorphization even partial nor form conversion should happen during the necessary micronization step.
The corresponding batches (examples 8a-8d) were micronized using a 50 mm spiral jet mill and pressurized nitrogen with the following parameters (see table 16b).
The corresponding batches were micronized using a 100 mm spiral jet mill and pressurized nitrogen with the following parameters (see table 16c).

[4] = Phase I, single inhaled, inhaled + charcoal, oral and intravenous doses in healthy male subjects: plasma concentrations, lung deposition; format: in vivo, human
Method: Healthy white male subjects, aged 18 to 45 years with a body mass index (BMI) above/equal 18.5 and below/equal 29.9 kg/m^2 were treated in a clinical phase I study with a single inhaled dose of 1000 μg (nominal dose), a single inhaled dose of 1000 μg (nominal dose)+charcoal block, a single oral dose of 1000 μg and a single infusion over 2 h of 100 μg of example 4. As the bioavailability of an intravenous application is generally 100% per definition and therefore higher than in case of an oral or […], the intravenous dose was carefully selected to be lower than the oral and inhaled dose to avoid higher plasma concentration resulting from a high IV dose and potential side effect, e.g. reduction in blood pressure or syncope. Therefore, 100 μg was selected for the IV dose in this investigation. Seven days washout period between treatments was applied. The subjects swallowed a solution for oral administration (20 ml comprising 1000 μg see under C-2, table 49a). The subjects received a solution as a single infusion over 2 hours (2 ml comprising 100 μg see under C-2 table 49a). The subjects inhaled the drug powder from capsules (see under C-1, tables 17 and 20) inserted into a handheld inhalation device by one deep inhalative breath. After inhalation of the dry powder formulation of this drug, some parts of the nominal dose remain in the capsule and the device, the dose which reaches the body at the mouthpiece is called the emitted dose. The emitted dose can be calculated/determined as followed: nominal dose−(remains in the capsule+remains in the device). After inhalation of the dry powder, one part of the emitted dose enters the gastrointestinal tract (GT and is called the oral part of the emitted dose, the other part of the emitted dose which reaches the lung through the respiratory airways is called the lung dose and represents the lung deposited dose. As the lung is the target organ of the effect, the lung deposited dose must be quantified. Lung deposition can be indirectly estimated, by determining the part of the nominal dose which reaches the GIT and the remains in the capsule and the device. To investigate and determine lung deposition, the following investigations were done (see also FIG. 59): • 1—Inhaled application of a single dose of 1000 μg of the dry powder. • 2—Inhaled application of a single dose of 1000 μg of the dry powder in combination with oral administration of charcoal block. The charcoal block capped the oral absorption of GIT part of the dose, as example 4 completely adsorbed to charcoal block. This implies that the concentrations of example 4 measured reach the systemic circulation via the lung. • 3—Administration of a single oral dose of 1000 μg example 4 to determine the oral absorption. • 4—Administration of a 2 h infusion of example 4 to investigate the elimination.

For `O=C(O)c1ccc(CCN(CCc2ccccc2OCc2ccc(-c3ccc(C(F)(F)F)cc3)cc2Cl)[C@H]2CCCc3nc(C(=O)O)ccc32)cc1` [Comparative example 11, (5S)-5-{[2-(4-carboxyphenyl)ethyl][2-(2-{[3-chloro-4′-(trifluoromethyl)[biphenyl]-4-yl]methoxy}phenyl)ethyl]amino}-5,6,7,8-tetrahydroquinoline-2-carboxylic Acid], the “fraction unbound, lower than comparative example 1” value [1] was 10 times lower and the effect on ventilation [2] was “bronchodilatory effect”.

In the case of `O=C(O)c1ccc(CCN(CCc2ccccc2OCc2ccc(-c3ccc(C(F)(F)F)cc3)cc2Cl)[C@H]2CCCc3nc(C(=O)O)ccc32)cc1` [Example 4, (5S)—{[2-(4-Carboxyphenyl)ethyl][2-(2-{[3-chloro-4′-(trifluoromethyl)biphenyl-4-yl]methoxy}phenyl)-ethyl]amino}-5,6,7,8-tetrahydroquinoline-2-carboxylic Acid as Monohydrate I], the “stability under micronization conditions” value [3] is reported as “stable”, the absolute bioavailability ([4]; dry powder inhaled with charcoal) is reported as 16.3% and the absolute bioavailability ([4]; dry powder inhaled without charcoal) is reported as 18.8%. It also gave an elimination half-life ([4]; inhaled 1000 μg with charcoal) of 16.1 h, an elimination half-life ([4]; inhaled 1000 μg without charcoal) of 15.1 h and an elimination half-life ([4]; intravenous, 100 μg infusion over 2 h) of 0.26 h. The elimination half-life ([4]; oral, 1000 μg) was 4.43 h.
